Laboratory results taken from ChEMBL document CHEMBL3399960, “Cytochalasin derivatives from a jellyfish-derived fungus Phoma sp” (Bioorg Med Chem Lett, 2015).

What was measured:
Format in all cases: functional, cell-based
[1] = Cytotoxicity against human HCT116 cells after 24 hrs by WST assay; conditions: HCT-116, 24 h
A549 = assay: Cytotoxicity against human A549 cells after 24 hrs by WST assay; conditions: A549, 24 h
KB = assay: Cytotoxicity against human KB cells after 24 hrs by WST assay

Row | SMILES | IC50 [1] | IC50 (A549) | IC50 (KB)
1 | C=C1[C@@H](C)[C@H]2[C@H](Cc3ccccc3)NC(=O)[C@]23OC(=O)CCC(=O)CCC[C@@H](C)C/C=C/[C@H]3[C@@H]1O | 39.3 µM | 39.3 µM | 37.3 µM
2 | CC1=C(C)[C@H]2[C@H](Cc3ccccc3)NC(=O)[C@]23OC(=O)CC[C@H](O)CCC[C@@H](C)C/C=C/[C@H]3[C@@H]1O | > 40 µM | > 40 µM | > 40 µM
3 | CC1=C[C@@H]2/C=C/C[C@H](C)CCCC/C=C/C(=O)O[C@]23C(=O)N[C@@H](Cc2ccccc2)[C@@H]3[C@@H]1C | 18.2 µM | 36.2 µM | 19.7 µM
4 | CC1=C(C)[C@H]2[C@H](Cc3ccccc3)NC(=O)[C@]23OC(=O)/C=C/C(=O)CCC[C@@H](C)C/C=C/[C@H]3[C@@H]1O | 38.1 µM | 29.2 µM | 19.9 µM
5 | CC1=C(C)[C@H]2[C@H](Cc3ccccc3)NC(=O)[C@]23OC(=O)CCC(=O)CCC[C@@H](C)C/C=C/[C@H]3[C@@H]1O | > 40 µM | 37.3 µM | > 40 µM
6 | COc1cccc2c1C(=O)c1c(O)c3c(c(O)c1C2=O)C[C@@](O)(C(=O)CO)C[C@@H]3O[C@H]1C[C@H](N)[C@H](O)[C@H](C)O1 [DOXORUBICIN] | 2.2 µM | 1.3 µM | 4.3 µM
